A short description of one data set: in vitro. To be noted: human. As for the experimental part:
(§1) Cells exposed to compounds or standard drug were incubated 72 h at 37 °C and 5% of CO2. Cytotoxic activity of each compound was determined according to the effect on the cell viability by the MTT microenzymatic method in which 3-(4,5-dimethylthiazol-2-yl)-2,5-diphenyltetrazolium bromide is reduced to a purple product named formazan by mitochondrial enzyme succinate dehydrogenase. Thus, 10 μL/well of MTT solution (5 mg/mL) were added to each well of exposed and unexposed cells, and plates were incubated at 37 °C, 5% CO2 during 3 h. The reaction was stopped by adding 100 μL/well of isopropanol with 50% and 10% of sodium dodecyl sulfate. The concentration of formazan was determined spectrophotometrically at 570 nm (Varioskan Flash Multimode Reader, Thermo Scientific, Waltham, MA, USA) and intensity of color (absorbance) was registered as O.D. Cells exposed to amphotericin B were used as control for toxicity (positive control) while cell incubated in absence of any compound or drug were used as control for viability (negative control). Non-specific absorbance was corrected by subtracting absorbance (O.D.) of the blank. Determinations were done by triplicate in at least two independent experiments.
(§2) Cytotoxicity was determined according to viability and mortality percentages obtained for each experimental condition (synthetized compounds, amphotericin B and culture medium). […] Initially, viability percentages were calculated by Equation (1), where the O.D. of control well, corresponds to 100% of viability:% viability = (O.D. exposed cells/O.D. unexposed cells) × 100(1)

Data set [1] concerns intracellular amastigotes of L. panamensis. Description: in vitro antileishmanial activity on intracellular amastigotes (EGFP strain in U-937 cells, flow cytometry). In kind it is cell-based, Leishmania panamensis. The following applies: for EC50: intracellular amastigotes of L. panamensis (MHOM/CO/87/UA140-EGFP) in U-937 cells, 72 h, mean ± SD; for IS (Index of Selectivity = LC50/EC50): LC50 (U-937) / EC50 (L. panamensis amastigotes); for antileishmanial activity (in words): 10-50 µM moderately active, > 50 µM low activity. As for the experimental part:
Antileishmanial activity of compounds was determined according to the ability to reduce the infection by L. panamensis parasites, a Leishmania species that is highly prevalent in the Central America and Colombia as causative agent of C.L. For this, the antileishmanial activity was tested on intracellular amastigotes of L. panamensis transfected with the green fluorescent protein gene (MHOM/CO/87/UA140-EGFP strain). […] Plates were incubated at 34 °C and 5% CO2 for 3 h and then cells were washed twice with PBS to eliminate not internalized parasites. […] Cells were washed two times employing PBS, as previously, and after the last wash, the supernatant was discarded and cells were suspended in 500 μL of PBS.
Cells were analyzed by flow cytometry employing a flow cytometer (Cytomics FC 500MPL, Beckman Coulter. Pasadena, CA, USA) reading at 488 nm (exciting) and 525 nm (emitting) over an argon laser and counting 10,000 events. Infected cells were determined according the events for green fluorescence (parasites). All determinations for each compound and standard drug were carried out by triplicate, in two experiments. Infected cells exposed to amphotericin B were used as control for antileishmanial activity (positive control) while infected cells incubated in absence of any compound or drug were used as control for infection (negative control). Nonspecific fluorescence was corrected by subtracting fluorescence of unstained cells. Determinations were done by triplicate in at least two independent experiments.
Antileishmanial activity was determined according reduction of percentage of fluorescent parasites determined according to the median fluorescence intensity (MFI), obtained for each experimental condition by cytometry. The parasite values for each concentration of compound were calculated by Equation (3), where the % of parasites in the control well, corresponds to 100% of parasites:% parasites = (MFI exposed parasites/MFI unexposed parasites) × 100(3)
Results of antileishmanial activities were expressed as the EC50 calculated by Probit method. The compound were classified according to EC50 values using a scale defined by us, based on the hit criteria proposed by Katsuno et al.[25].

Data set [2] deals with human monocytes (U-937 ATCC CRL-1593.2). Description: in vitro. To be noted: for CC50: read-out: LC50, U-937 cells, 72 h, MTT, mean ± SD. As for the experimental part:
as §1, §2

The EC50 is the concentration at which the effect is half-maximal. Lower therefore signals an effect from little substance.

Turning to `C[C@@H]1[C@H](O)[C@@H](C)/C=C/C=C/C=C/C=C/C=C/C=C/C=C/[C@H](O[C@@H]2O[C@H](C)[C@@H](O)[C@H](N)[C@@H]2O)C[C@@H]2O[C@](O)(C[C@@H](O)C[C@@H](O)[C@H](O)CC[C@@H](O)C[C@@H](O)CC(=O)O[C@H]1C)C[C@H](O)[C@H]2C(=O)O` [Amphotericin B, reference compound], the CC50 at 72 h in the data set “in vitro” was 39.6 ± 8.7 µM. In addition, the EC50 in data set [1] (Leishmania panamensis) amounted to 0.32 µM.
With `O=C1CC(c2ccccc2)Sc2ccccc21` (stereo not shown) [Compound 5, 2-Phenylthiochroman-4-one], in data set [2] (scale b53: LC50 < 100 µM high toxicity, 100-200 µM moderate, > 200 µM potential nontoxicity), the “cytotoxic activity (in words)” value is listed as “high cytotoxic activity”. In “in vitro”, this molecule came in with a CC50 at 72 h greater than 41.6 µM. Also, the “IS (Index of Selectivity = LC50/EC50)” value in data set [1] is reported as greater than 0.9. The same molecule returned a concentration giving a half-maximal response (EC50) in data set [1] (Leishmania panamensis) of 44.1 ± 0.9 µM. Further, in data set [1] (scale b56: EC50 < 10 µM highly active), the “antileishmanial activity (in words)” value is reported as “moderate antileishmanial activity”.
In the case of `CC1C/C(=N\NC(=O)c2ccncc2)c2cc(F)ccc2S1` (stereo not shown) [Compound 17, (E)-N′-(6-Fluoro-2-methylthiochroman-4-ylidene)isonicotinohydrazide], the CC50 at 72 h in the data set “in vitro” is 203 ± 25.4 µM. For the same molecule, the “IS (Index of Selectivity = LC50/EC50)” value in data set [1] came out at 2.1. In addition, the EC50 in data set [1] (Leishmania panamensis) stood at 98.9 ± 19.3 µM.
The corresponding values for `O=C(N/N=C1\CCSc2ccccc21)c1ccncc1` [Compound 7, (E)-N′-(Thiochroman-4-ylidene)isonicotinohydrazide] are 706 µM, greater than 12.4 and 56.8 ± 4.54 µM.
Take `NNC(N)=S` [thiosemicarbazide, reference compound]: the CC50 in data set [2] was greater than 1000 µM. Also, in data set [1] ([…]), the “antileishmanial activity (in words)” value was “inactive”. In data set [1], this molecule displayed a half-maximal effective concentration (EC50) greater than 267 µM.
The molecule `CC1C/C(=N\NC(=O)c2ccc(N)cc2)c2cc(F)ccc2S1` (stereo not shown) [Compound 18, (E)-4-Amino-N′-(6-fluoro-2-methylthiochroman-4-ylidene)benzohydrazide] gave a CC50 at 72 h in the data set “in vitro” of 31 ± 7 µM. The “IS (Index of Selectivity = LC50/EC50)” value in data set [1] turned out to be 0.2. In data set [1] (Leishmania panamensis), the response was half-maximal at 161 ± 2.4 µM (EC50).
The like results for `CC1CC(=O)c2cc(F)ccc2S1` (stereo not shown) [Compound 4, 6-Fluoro-2-methylthiochroman-4-one] were, in that order, 579 ± 59.1 µM, 1.4 and 422 ± 9.2 µM.
The corresponding values for `O=C(N/N=C1\CCSc2ccc(F)cc21)c1ccccc1` [Compound 10, (E)-N′-(6-Fluorothiochroman-4-ylidene)benzohydrazide] are greater than 666 µM, greater than 17.6 and 37.3 ± 3.3 µM.
The corresponding values for `NC(=O)N/N=C1\CC(c2ccccc2)Sc2ccccc21` (stereo not shown) [Compound 19, (E)-2-(2-Phenylthiochroman-4-ylidene)hydrazinecarboxamide] are 100 ± 19.8 µM, 18.6 and 5.4 ± 1 µM.
With `NC(=O)N/N=C1\CCSc2ccccc21` [Compound 8, (E)-2-(Thiochroman-4-ylidene)hydrazinecarboxamide], in “in vitro”, the CC50 at 72 h was determined as 637 ± 37.9 µM. In data set [1], the “IS (Index of Selectivity = LC50/EC50)” value was 7.0. The same molecule registered an EC50 in data set [1] (Leishmania panamensis) of 91.5 ± 33.4 µM.
In the case of `O=C1CCSc2ccccc21` [Compound 1, thiocroman-4-one], the CC50 in data set [2] is greater than 1000 µM. This molecule also displayed an EC50 in data set [1] of 344 ± 75.6 µM.
For `CC1C/C(=N\NC(=O)c2ccccc2)c2cc(F)ccc2S1` (stereo not shown) [Compound 16, (E)-N′-(6-Fluoro-2-methylthiochroman-4-ylidene)benzohydrazide], the CC50 at 72 h in “in vitro” is greater than 636 µM. Further, in data set [1] (Leishmania panamensis), the EC50 is 43.9 ± 4.5 µM.
Consider `O=C(N/N=C1\CCSc2ccc(F)cc21)c1ccncc1` [Compound 11, (E)-N′-(6-Fluorothiochroman-4-ylidene)isonicotinohydrazide], for which the CC50 at 72 h in the data set “in vitro” is greater than 664 µM. In data set [1], the “IS (Index of Selectivity = LC50/EC50)” value is on record as greater than 16.6. Also, a half-maximal response in data set [1] (Leishmania panamensis) (EC50) required 39.9 ± 5.3 µM.
The corresponding values for `NC(=S)N/N=C1\CC(c2ccccc2)Sc2ccccc21` (stereo not shown) [Compound 20, (E)-2-(2-Phenylthiochroman-4-ylidene)hydrazinecarbothioamide] are 50.1 ± 4.1 µM, 9.8 and 5.1 ± 1.3 µM.
The corresponding values for `CC1CC(=O)c2ccccc2S1` (stereo not shown) [Compound 3, 2-Methylthiochroman-4-one] are 604 ± 86.4 µM, 1.4 and 445 ± 7.3 µM.
The corresponding values for `Nc1ccc(C(=O)N/N=C2\CCSc3ccc(F)cc32)cc1` [Compound 12, (E)-4-Amino-N′-(6-fluorothiochroman-4-ylidene)benzohydrazide] are greater than 634 µM, greater than 6.6 and 95.5 ± 6.9 µM.
As to `O=C(N/N=C1\CC(c2ccccc2)Sc2ccccc21)c1ccccc1` (stereo not shown) [Compound 21, (E)-N′-(2-Phenylthiochroman-4-ylidene)benzohydrazide], the CC50 at 72 h in the data set “in vitro” was found to be 529 ± 7 µM. The EC50 in data set [1] (Leishmania panamensis) was determined as 28.5 ± 2.8 µM.
For the molecule `CC1C/C(=N\NC(=O)c2ccccc2)c2ccccc2S1` (stereo not shown) [Compound 13, (E)-N′-(2-Methylthiochroman-4-ylidene)benzohydrazide], the CC50 at 72 h in the data set “in vitro” came out at 150 ± 24.3 µM. Besides, the “IS (Index of Selectivity = LC50/EC50)” value in data set [1] is listed as 3.9. The molecule also showed a concentration for a half-maximal effect (EC50) in data set [1] (Leishmania panamensis) of 38.1 ± 16.2 µM.
In “in vitro”, `O=C1CCSc2ccc(F)cc21` [Compound 2, 6-Fluorothiochroman-4-one] showed a CC50 at 72 h greater than 706 µM. In addition, the “IS (Index of Selectivity = LC50/EC50)” value in data set [1] is less than 6.5. In data set [1] (Leishmania panamensis), this molecule returned an EC50 greater than 110 µM.
The corresponding values for `CC1C/C(=N\NC(=O)c2ccc(N)cc2)c2ccccc2S1` (stereo not shown) [Compound 15, (E)-4-Amino-N′-(2-methylthiochroman-4-ylidene)benzohydrazide] are 102 ± 15.1 µM, 1.1 and 91.8 ± 13.5 µM.
On to `O=C(N/N=C1\CC(c2ccccc2)Sc2ccccc21)c1ccncc1` (stereo not shown) [Compound 22, (E)-N′-(2-Phenylthiochroman-4-ylidene)isonicotinohydrazide], for which, in “in vitro”, the CC50 at 72 h is greater than 556 µM. For the same molecule, in data set [1], the “IS (Index of Selectivity = LC50/EC50)” value was greater than 33.9. Moreover, the midpoint of the response in data set [1] (Leishmania panamensis), the EC50, lay at 16.4 ± 3.6 µM.
Regarding `CC1C/C(=N\NC(=O)c2ccncc2)c2ccccc2S1` (stereo not shown) [Compound 14, (E)-N′-(2-Methylthiochroman-4-ylidene)isonicotinohydrazide], the CC50 at 72 h in the data set “in vitro” was greater than 672 µM. Also, the “IS (Index of Selectivity = LC50/EC50)” value in data set [1] was greater than 11.9. Also, it took 56.6 ± 0.7 µM to reach a half-maximal effect in data set [1] (Leishmania panamensis) (EC50).
The corresponding values for `O=C(N/N=C1\CCSc2ccccc21)c1ccccc1` [Compound 6, (E)-N′-(Thiochroman-4-ylidene)benzohydrazide] are 248 ± 49.6 µM, 3.9 and 63.7 ± 9.2 µM.

These data come from PMC6017792, “Hydrazone Derivatives Enhance Antileishmanial Activity of Thiochroman-4-ones” (Molecules : A Journal of Synthetic Chemistry and Natural …, 2017).
